According to US6844343B1, “N-substituted 4-aminopteridines, synthesis and use thereof as pharmaceutical agent” (Vasopharm Biotech GmbH, priority 1999, dated 2005):

Test system: purified NO synthase from pig cerebellum or from pig liver
Assay: Activity assay of purified NOS (3H-L-arginine to 3H-L-citrulline conversion)
Assay type: biochemical
Conditions: substance 100 μM, in the presence of 2 μM tetrahydrobiopterin, 15 min at 37° C.
Description: The inhibition of the activity of purified nitric oxide synthase (NOS) by compounds of the general formula I can be determined as follows.
In this activity assay the L-citrulline which is a coproduct of the formation of NO by purified NOS is quantitatively measured. ^3H-radiolabeled L-arginine is employed as substrate of the enzyme reaction and is converted into ^3H-L-citrulline and NO. After completion of the enzyme incubation, generated L-citrulline is removed from unused L-arginine by ion exchange chromatography from the reaction mixture; the ^3H activity measured by liquid scintillation then is corresponds to the amount of L-citrulline, which is a direct measure of the activity of NOS.
The basic medium for carrying out the enzyme reaction is TE buffer (triethanolamine, EDTA, pH 7.0).
The final volume of each incubation is 100 μl. The reaction mixture is obtained by mixing the following 6 components on ice: • 1. “REA-Mix” (pH 7.0) which contains triethanolamine, calcium chloride, magnesium chloride, EDTA, L-arginine, calmodulin and flavin adenine dinucleotide (FAD); • 2. freshly prepared stock solution of β-nicotinamide adenine dinucleotide phosphate, reduced form (NADPH); • 3. (6R)-5,6,7,8-tetrahydro-L-biopterin dihydro-chloride stock solution (BH4) or —for experiments without BH4-instead TE buffer; • 4. purified NO synthase from pig cerebellum or from pig liver; • 5.
After mixing of the components on ice, the reaction mixture was immediately incubated in a water bath at 37° C. for 15 minutes. […] After this incubation time, the reaction was stopped by addition of 900 μl of ice-cold “stop buffer” (20 mM sodium acetate, 2 mM EDTA, pH 5.5), and the mixture (total volume now 1.0 ml) was placed on ice. To remove the unreacted ^3H-L-arginine, the mixture was loaded onto an ion exchange column with 0.8 ml of Dowex AG 50 WX-8 (100-200 mesh) which has previously been washed and equilibrated with 2 ml of stop buffer. After loading of the sample, the column was eluted twice with 1 ml of water each time. The flow-through of the sample and the eluate were collected in scintillation vessels and […] (total volume 3 ml). 9 ml of scintillator solution were added to the 3 ml of aqueous measurement solution, and the homogeneous mixture was measured in a Tricarb 2500 TR (Packard) liquid scintillation counter for 1 minute for each sample. […] Each substance was tested for an antagonistic effect in a concentration of 100 μM in the presence of 2 μM tetrahydrobiopterin, and for an agonistic effect on NOS in the absence of tetrahydrobiopterin.
All incubations were carried out on triplicates. Each experiment was repeated three times with different enzyme preparations.

Row | Molecule | Remaining activity (% of Vmax)
1 | CCN(CC)c1nc(N)nc2ncc(-c3ccc(OC)cc3)nc12.O [Example 17, 2-amino-4-(diethylamino)-6-(4-methoxyphenyl)-pteridine hydrate] | 2 ± 0.1 % of Vmax
2 | Nc1nc(N2CCCCC2)c2nc(-c3ccccc3)cnc2n1.O.O [Example 31, 2-amino-4-(piperidin-1-yl)-6-phenylpteridine dihydrate] | 0 ± 0.05 % of Vmax
3 | CCCN(CCC)c1nc(N)nc2ncc(-c3ccc(OC)cc3)nc12.O [Example 25, 2-amino-4-(di-n-propylamino)-6-(4-methoxyphenyl)-pteridine hydrate] | 25 ± 12 % of Vmax
4 | COc1ccc(-c2cnc3nc(N)nc(N4CCN(C)CC4)c3n2)cc1OC.O.O [Example 38, 2-amino-4-(4-methylpiperazin-1-yl)-6-(3,4-di-methoxyphenyl)pteridine dihydrate] | 99 ± 16 % of Vmax
5 | 2-amino-4-(4-methylpiperazin-1-yl)-6-(4-methoxy-phenyl)pteridine hemihydrate [Example 37] | 84 ± 5 % of Vmax
6 | Nc1nc(N2CCOCC2)c2nc(-c3ccccc3)cnc2n1.O [Example 27, 2-amino-4-(morpholin-4-yl)-6-phenylpteridine hydrate] | 41 ± 8 % of Vmax
7 | Cc1ccc(-c2cnc3nc(N)nc(N(C)C)c3n2)cc1 [Example 12, 2-amino-4-(dimethylamino)-6-(4-methylphenyl)-pteridine] | 15 ± 7 % of Vmax
8 | 2-amino-4-(4-methylpiperazin-1-yl)-6-phenyl-pteridine hemihydrate [Example 35] | 83 ± 1 % of Vmax
9 | CCN(CC)c1nc(N)nc2ncc(-c3ccc(OC)c(OC)c3)nc12.O [Example 18, 2-amino-4-(diethylamino)-6-(3,4-dimethoxyphenyl)-pteridine hydrate] | 23 ± 4 % of Vmax
10 | 2-amino-4-(4-methylpiperazin-1-yl)-6-(4-chloro-phenyl)pteridine hemihydrate [Example 36] | 64 ± 9 % of Vmax
11 | 2-amino-4-(morpholin-4-yl)-6-(4-methoxyphenyl)-5,6,7,8-tetrahydropteridine hydrochloride hemi-hydrate [Example 40] | 66 ± 14 % of Vmax
12 | Cl.Nc1nc(N2CCOCC2)c2nc(-c3ccc(Cl)cc3)cnc2n1.O [Example 28, 2-amino-4-(morpholin-4-yl)-6-(4-chlorophenyl)-pteridine hydrochloride hydrate] | 3 ± 1.5 % of Vmax
13 | COc1ccc(-c2cnc3nc(N)nc(N4CCOCC4)c3n2)cc1OC.O.O.O [Example 30, 2-amino-4-(morpholin-4-yl)-6-(3,4-dimethoxy-phenyl)pteridine trihydrate] | 5 ± 3 % of Vmax
14 | CCCN(CCC)c1nc(N)nc2ncc(-c3ccc(Cl)cc3)nc12.O.O.O [Example 24, 2-amino-4-(di-n-propylamino)-6-(4-chlorophenyl)-pteridine trihydrate] | 7 ± 4 % of Vmax
15 | CN(C)c1nc(N)nc2ncc(-c3ccccc3)nc12 [Example 11, 2-amino-4-(dimethylamino)-6-phenylpteridine] | 92 ± 11 % of Vmax
16 | CCN(CC)c1nc(N)nc2ncc(-c3ccc(Cl)cc3)nc12.O.O [Example 16, 2-amino-4-(diethylamino)-6-(4-chlorophenyl)-pteridine dihydrate] | 42 ± 10 % of Vmax
17 | COc1ccc(-c2cnc3nc(N)nc(N4CCCC4)c3n2)cc1.O.O [Example 39, 2-amino-4-(pyrrolidin-1-yl)-6-(4-methoxyphenyl)-pteridine dihydrate] | 30 ± 5 % of Vmax
18 | CCCN(CCC)c1nc(N)nc2ncc(-c3ccc(OC)c(OC)c3)nc12.O [Example 26, 2-amino-4-(di-n-propylamino)-6-(3,4-dimethoxy-phenyl)pteridine hydrate] | 0 % of Vmax
